Laboratory results: patent publication US10000450B2, “N,N-substituted 3-aminopyrrolidine compounds useful as monoamines reuptake inhibitors” (OTSUKA PHARMACEUTICAL CO., LTD., priority 2005, dated 2018)
Where a name gives a salt, the structure may show the parent alone.

Assays:
Assay type in all cases: biochemical
[1] = molecular target: T1, Dopamine (DA) uptake into rat brain synaptosome (striatum) (Rattus norvegicus, UniProt P23977); assay: Inhibitory activity on dopamine (DA) uptake into rat brain synaptosome; settings: tritium labeled DA 2 nM uptake, 10 min at 37° C., read-out: 50% inhibitory concentration
T1 construct: used as crude synaptosome fraction; from tissue; host or cells: rat (male Wistar) striatum, crude synaptosome fraction
T1 sequence (P23977 whole entry): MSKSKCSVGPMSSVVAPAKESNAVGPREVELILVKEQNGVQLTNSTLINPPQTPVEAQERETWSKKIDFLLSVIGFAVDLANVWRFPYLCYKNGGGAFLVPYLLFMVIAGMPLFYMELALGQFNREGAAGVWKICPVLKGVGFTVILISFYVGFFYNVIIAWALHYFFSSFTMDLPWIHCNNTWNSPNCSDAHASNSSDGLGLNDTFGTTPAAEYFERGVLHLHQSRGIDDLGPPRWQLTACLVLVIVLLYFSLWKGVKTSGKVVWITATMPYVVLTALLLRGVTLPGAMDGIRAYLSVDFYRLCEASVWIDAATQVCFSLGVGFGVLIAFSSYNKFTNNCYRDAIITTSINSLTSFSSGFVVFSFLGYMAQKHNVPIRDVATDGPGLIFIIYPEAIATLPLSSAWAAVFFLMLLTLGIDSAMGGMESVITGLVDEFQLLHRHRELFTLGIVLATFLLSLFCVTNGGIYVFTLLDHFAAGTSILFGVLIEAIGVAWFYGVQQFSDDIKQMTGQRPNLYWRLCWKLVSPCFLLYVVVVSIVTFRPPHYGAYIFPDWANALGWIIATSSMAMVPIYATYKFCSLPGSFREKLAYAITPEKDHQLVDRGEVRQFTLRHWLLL
Description: Pharmacological Test 3 Evaluation of Inhibitory Activity of Test Compound on Dopamine (DA) into Rat Brain Synaptosome
(§1) Male Wistar rats were decapitated and the brains were removed and the striata were dissected. The separated striata were homogenized in 20 volumes as weight of 0.32 M sucrose solution by a Potter-type homogenizer. The homogenate was centrifuged at 1000 g at 4° C. for 10 minutes, and the supernatant was then centrifuged at 20000 g at 4° C. for 20 minutes. The pellet was resuspended in incubation buffer (20 mM HEPES buffer (pH 7.4)) containing 10 mM glucose, 145 mM sodium chloride, 4.5 mM potassium chloride, 1.2 mM magnesium chloride, and 1.5 mM calcium chloride) and used as crude synaptosome fraction.
(§2) The uptake reaction mixture was suspended in a final volume of 200 μl containing pargyline (final concentration of 10 μM) and sodium ascorbate (final concentration of 0.2 mg/ml) in each well of 96-well-round-bottom-plate.
(§3) Solvent, unlabeled DA, and serial diluted test compounds were added in each well, and synaptosome fraction of 1/10 volume of the final volume were added. After 10-min preincubation at 37° C., the uptake was initiated by the addition of tritium labeled DA solution (final concentration of 2 nM) at 37° C. The uptake was stopped after 10 minutes by filtration under vacuum through a 96-well glass fiber filter plate. After washing the filter with cold physiological saline and drying up, Microscint-0 (Perkin-Elmer) was added and remained radioactivity on the filter was measured.
(§4) The uptake activity with only solvent was determined as 100%, and the nonspecific uptake activity with unlabeled DA (final concentration of 10 μM) was determined as 0%. The 50% inhibitory concentrations were calculated based on the concentrations of the test compounds and their inhibitory activities.

[2] = molecular target: T2, Norepinephrine (NE) uptake into rat brain synaptosome (hippocampus) (Rattus norvegicus, UniProt Q63380); assay: Inhibitory activity on norepinephrine (NE) uptake into rat brain synaptosome; settings: tritium-labeled NE 12 nM uptake, 10 min at 37° C., read-out: 50% inhibitory concentration
T2 construct: used as crude synaptosome fraction; from tissue; host or cells: rat (male Wistar) hippocampus, crude synaptosome fraction
T2 sequence (Q63380 1-617): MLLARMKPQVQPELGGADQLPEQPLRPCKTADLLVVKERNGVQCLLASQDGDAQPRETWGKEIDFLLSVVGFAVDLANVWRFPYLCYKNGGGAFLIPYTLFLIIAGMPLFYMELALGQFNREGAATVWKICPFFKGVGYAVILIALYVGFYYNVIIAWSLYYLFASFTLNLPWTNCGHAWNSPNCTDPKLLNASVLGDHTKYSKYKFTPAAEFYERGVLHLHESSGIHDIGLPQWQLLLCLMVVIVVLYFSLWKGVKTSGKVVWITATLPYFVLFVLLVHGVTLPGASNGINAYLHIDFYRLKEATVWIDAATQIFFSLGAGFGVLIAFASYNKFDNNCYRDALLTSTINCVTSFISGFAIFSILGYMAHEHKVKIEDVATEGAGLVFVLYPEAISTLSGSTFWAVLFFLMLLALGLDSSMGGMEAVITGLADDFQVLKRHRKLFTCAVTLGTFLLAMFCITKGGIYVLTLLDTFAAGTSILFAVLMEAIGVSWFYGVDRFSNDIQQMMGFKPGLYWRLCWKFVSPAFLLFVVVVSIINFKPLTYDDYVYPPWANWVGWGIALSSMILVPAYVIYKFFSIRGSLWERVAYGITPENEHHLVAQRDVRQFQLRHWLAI
Description: Pharmacological Test 2 Evaluation of Inhibitory Activity of Test Compound on Norepinephrine (NE) Uptake into Rat Brain Synaptosome
as §1, with “hippocampi” for “striata”
The uptake reaction mixture was suspended in final volume of 200 μl containing pargyline (final concentration of 10 μM) and sodium ascorbate (final concentration of 0.2 mg/ml) in each well of 96-well-round-bottom-plate.
as §3, with “unlabeled NE,” for “unlabeled DA,”, “added to” for “added in”, “After 10 minutes” for “After 10-min”, “of tritium-labeled NE” for “of tritium labeled DA”, “of 12” for “of 2”, “was added,” for “was added”
as §4, with “The total uptake activity” for “The uptake activity”, “with unlabeled NE (final concentration” for “with unlabeled DA (final concentration”

[3] = molecular target: T3, Serotonin (5-HT) uptake into rat brain synaptosome (frontal cortex) (Rattus norvegicus, UniProt P31652); assay: Inhibitory activity on serotonin (5-HT) uptake into rat brain synaptosome; settings: tritium-labeled 5-HT 8 nM uptake, 10 min at 37° C., read-out: 50% inhibittory concentration
T3 construct: used as crude synaptosome fractions; from tissue; host or cells: rat (male Wistar) frontal cortex, crude synaptosome fraction
T3 sequence (P31652 whole entry): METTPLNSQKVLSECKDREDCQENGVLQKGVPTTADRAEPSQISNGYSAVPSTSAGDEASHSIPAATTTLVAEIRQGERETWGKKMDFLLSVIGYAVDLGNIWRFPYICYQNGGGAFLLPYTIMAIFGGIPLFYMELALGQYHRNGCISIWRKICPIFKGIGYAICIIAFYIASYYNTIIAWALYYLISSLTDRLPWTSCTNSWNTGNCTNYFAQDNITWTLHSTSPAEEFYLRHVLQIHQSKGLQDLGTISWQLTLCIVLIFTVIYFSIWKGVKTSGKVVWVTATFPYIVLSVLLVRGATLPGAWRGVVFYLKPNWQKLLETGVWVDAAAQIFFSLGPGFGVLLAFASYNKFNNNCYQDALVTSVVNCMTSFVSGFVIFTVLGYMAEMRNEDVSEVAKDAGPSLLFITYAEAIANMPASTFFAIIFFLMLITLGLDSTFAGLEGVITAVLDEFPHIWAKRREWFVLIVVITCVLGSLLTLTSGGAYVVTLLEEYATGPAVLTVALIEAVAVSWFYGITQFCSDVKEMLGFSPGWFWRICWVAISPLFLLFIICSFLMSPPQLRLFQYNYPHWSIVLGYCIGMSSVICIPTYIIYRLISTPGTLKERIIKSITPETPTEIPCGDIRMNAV
Description: Pharmacological Test 1 Evaluation of Inhibitory Activity of Test Compound on Serotonin (5-HT) Uptake into Rat Brain Synaptosome
as §1, with “frontal cortices” for “striata”, “fractions.” for “fraction.”
as §2
as §3, with “unlabeled 5-HT,” for “unlabeled DA,”, “After a 10 min” for “After 10-min”, “of tritium-labeled 5-HT” for “of tritium labeled DA”, “of 8” for “of 2”, “up, Microscint-O” for “up, Microscint-0”, “was added,” for “was added”
as §4, with “The total uptake activity” for “The uptake activity”, “with unlabeled 5-HT (final concentration” for “with unlabeled DA (final concentration”

| IC50 [1] [nM] | IC50 [2] [nM] | IC50 [3] [nM] | SMILES |
| --- | --- | --- | --- |
| 9.3 | – | – | Cc1cc(N(c2ccccc2)[C@H]2CCNC2)ccc1F [Example 46] |
| 48.6 | – | – | c1cc2cc(N(c3ccc4sccc4c3)[C@H]3CCNC3)ccc2s1 [Example 299] |
| – | 0.6 | 1.5 | c1ccc(N(c2ccc3cnsc3c2)[C@H]2CCNC2)cc1 [Example 900] |
| 38 | 0.5 | 3 | Cc1cc(N(c2cncc(F)c2)[C@H]2CCNC2)ccc1F [Example 895] |
| – | – | 0.7 | CSc1ccc(N(c2ccccc2)[C@H]2CCNC2)cc1 [Example 19] |
| – | 0.1 | – | Clc1ccc(N(c2cccnc2)[C@H]2CCNC2)cc1Cl [Example 256] |
| 32.9 | – | – | Clc1ccc(N(c2ccncc2)[C@H]2CCNC2)cc1Cl [Example 273] |
| – | 0.1 | – | Clc1ccc(N(c2ccccn2)[C@H]2CCNC2)cc1Cl [Example 188] |
| 8.9 | 0.1 | – | c1ccc(N(c2ccc3sccc3c2)[C@H]2CCNC2)cc1 [Example 116] |
| 29.8 | 0.5 | – | Fc1cncc(N(c2ccc3sccc3c2)[C@H]2CCNC2)c1 [Example 951] |
| – | 0.7 | 1.2 | Cc1cc2ccc(N(c3ccccc3)[C@H]3CCNC3)cc2s1 [Example 903] |
| 30.6 | 0.1 | – | c1cncc(N(c2ccc3ccsc3c2)[C@H]2CCNC2)c1 [Example 289] |
| 34.7 | 0.3 | 2.2 | Fc1ccc(N(c2ccsc2)[C@H]2CCNC2)cc1Cl [Example 278] |
| – | 0.3 | – | Cc1ccc(N(c2cccc(F)c2)[C@H]2CCNC2)cc1Cl [Example 98] |
| 25.4 | 0.1 | 0.9 | CC(C)(O)CN(c1ccc(F)c(Cl)c1)[C@H]1CCNC1 [Example 967] |
| – | – | 0.7 | Fc1ccc(N(c2ccc3ccsc3n2)[C@H]2CCNC2)cc1 [Example 899] |
| 8.2 | – | – | N#Cc1ccc(N(c2ccc(Cl)c(Cl)c2)[C@H]2CCNC2)cn1 [Example 270] |
| 5.8 | 0.3 | 0.6 | Fc1ccc(N(c2ccc3ncsc3c2)[C@H]2CCNC2)cc1Cl [Example 989] |
| – | 0.9 | 2.5 | [O-][n+]1cccc(N(c2ccc(F)c(Cl)c2)[C@H]2CCNC2)c1 [Example 896] |
| 8.7 | 0.4 | – | Fc1ccc(N(c2ccccc2)[C@H]2CCNC2)cc1Cl [Example 44] |
| – | – | 0.8 | Cc1cc(N(c2cnc3ccccc3c2)[C@H]2CCNC2)ccc1F [Example 151] |
| 6.5 | 0.8 | 0.8 | Fc1ccc(N(c2ccc3ncccc3c2)[C@H]2CCNC2)cc1Cl [Example 913] |
| – | 2.2 | – | Cc1ccc(N(c2ccccc2)[C@H]2CCNC2)cc1 [Example 22] |
| 26 | 0.8 | – | Cn1ncc2ccc(N(c3ccc(F)c(Cl)c3)[C@H]3CCNC3)cc21 [Example 990] |
| 9.2 | 0.2 | 0.8 | Fc1ccc(N(c2ccccn2)[C@H]2CCNC2)cc1Cl [Example 154] |
| 32.9 | 0.1 | – | c1cc(N(c2ccc3sccc3c2)[C@H]2CCNC2)cs1 [Example 1002] |

| IC50 [1] [nM] | IC50 [2] [nM] | IC50 [3] [nM] | SMILES |
| --- | --- | --- | --- |
| 24 | – | – | c1cncc(N(c2ccc3sccc3c2)[C@H]2CCNC2)c1 [Example 294] |
| 30 | – | – | N#Cc1ccc(-c2cncc(N(c3ccc(F)c(Cl)c3)[C@H]3CCNC3)c2)cc1 [Example 272] |
| – | 0.6 | – | Clc1ccc(N(c2ccccc2)C2CCNC2)cc1Cl (stereo not drawn) [Example 1, (3,4-dichlorophenyl)phenylpyrrolidin-3-ylamine dihydrochloride] |
| 6.8 | 1 | 0.8 | Fc1ccc(N(c2ccc3cnsc3c2)[C@H]2CCNC2)cc1Cl [Example 930] |
| – | – | 0.7 | O=C1CCc2ccc(N(c3ccc(F)cc3)[C@H]3CCNC3)cc2N1 [Example 917] |
| 16.4 | 0.1 | – | c1cc(N(c2ccc3ccsc3c2)[C@H]2CCNC2)cs1 [Example 1001] |
| 9.4 | 0.3 | 2.6 | Fc1cncc(N(c2ccc(F)c(Cl)c2)[C@H]2CCNC2)c1 [Example 894] |
| 4.3 | – | – | CCN1CCN(c2ccc(N(c3ccc(F)c(Cl)c3)[C@H]3CCNC3)nc2)CC1 [Example 201] |
| 32.5 | 0.4 | 0.8 | Fc1ccc(N(c2ccc3ccsc3c2)[C@H]2CCNC2)cc1 [Example 114] |
| – | 0.8 | – | Fc1ccc(N(c2ccccc2)[C@H]2CCNC2)cc1 [Example 20] |
| – | 0.2 | – | COc1cccc(N(c2ccc(F)c(Cl)c2)[C@H]2CCNC2)n1 [Example 223] |
| – | – | 0.7 | Fc1ccc(N(c2ccc3cnsc3c2)[C@H]2CCNC2)cc1 [Example 901] |
| – | 0.4 | – | c1ccc2cc(N(c3ccsc3)[C@H]3CCNC3)ccc2c1 [Example 1000] |
| 9.6 | – | – | c1cc2ccc(N(c3ccc4ccsc4c3)[C@H]3CCNC3)cc2s1 [Example 300] |
| – | – | 1.2 | Fc1ccc(N(c2cnc3ccccc3c2)[C@H]2CCNC2)cc1Cl [Example 149] |
| 9 | – | 0.6 | N#Cc1ccc(N(c2ccc(F)c(Cl)c2)[C@H]2CCNC2)cc1 [Example 73] |
| – | – | 1.8 | c1ccc(N(c2ccc3sccc3n2)[C@H]2CCNC2)cc1 [Example 934] |
| 3.8 | – | – | Fc1ccc(N(c2ccc(N3CCNCC3)cn2)[C@H]2CCNC2)cc1Cl [Example 200] |
| – | – | 1.6 | Fc1ccc(N(CCCCOc2ccccn2)[C@H]2CCNC2)cc1Cl [Example 5, (3-chloro-4-fluorophenyl)-[4-(pyridin-2-yloxy)butyl]-(S)-pyrrolidin-3-ylamine difumarate] |
| – | 0.2 | – | Clc1ccc(N(c2cccnc2)[C@H]2CCNC2)cc1Cl [Example 242] |
| – | 0.8 | 1.4 | Fc1ccc(N(C2CCCC2)[C@H]2CCNC2)cc1Cl [Example 306] |
| 30.2 | – | 1 | Cn1c(=O)ccc2cc(N(c3ccc(F)c(Cl)c3)[C@H]3CCNC3)ccc21 [Example 912] |
| 6.5 | – | 0.8 | N#Cc1ccc(N(c2ccc(F)c(Cl)c2)[C@H]2CCNC2)cn1 [Example 268] |
| – | 0.5 | – | Fc1ccc(N(c2ccc(Cl)nc2)[C@H]2CCNC2)cc1Cl [Example 244] |
| – | 0.2 | 0.6 | Fc1ccc(N(c2nccs2)[C@H]2CCNC2)cc1Cl [Example 131] |
